The source of these data is US10077243B2, “Compounds for treating disorders mediated by metabotropic glutamate receptor 5, and methods of use thereof” (Sunovion Pharmaceuticals Inc., priority 2009, dated 2018).

SMILES strings stand for the structures.

For the assay, the target named is T1, human mGluR5 (Homo sapiens, UniProt P41594).
T1 construct: expressed in transfected cells; host or cells: HEK293 cells stably expressing rat GLAST (EAAT1), stably transfected with pcDNAzeo3.1 carrying synthetic human mGluR5 DNA; zeocin-selected single clones
T1 sequence (P41594 21-1212): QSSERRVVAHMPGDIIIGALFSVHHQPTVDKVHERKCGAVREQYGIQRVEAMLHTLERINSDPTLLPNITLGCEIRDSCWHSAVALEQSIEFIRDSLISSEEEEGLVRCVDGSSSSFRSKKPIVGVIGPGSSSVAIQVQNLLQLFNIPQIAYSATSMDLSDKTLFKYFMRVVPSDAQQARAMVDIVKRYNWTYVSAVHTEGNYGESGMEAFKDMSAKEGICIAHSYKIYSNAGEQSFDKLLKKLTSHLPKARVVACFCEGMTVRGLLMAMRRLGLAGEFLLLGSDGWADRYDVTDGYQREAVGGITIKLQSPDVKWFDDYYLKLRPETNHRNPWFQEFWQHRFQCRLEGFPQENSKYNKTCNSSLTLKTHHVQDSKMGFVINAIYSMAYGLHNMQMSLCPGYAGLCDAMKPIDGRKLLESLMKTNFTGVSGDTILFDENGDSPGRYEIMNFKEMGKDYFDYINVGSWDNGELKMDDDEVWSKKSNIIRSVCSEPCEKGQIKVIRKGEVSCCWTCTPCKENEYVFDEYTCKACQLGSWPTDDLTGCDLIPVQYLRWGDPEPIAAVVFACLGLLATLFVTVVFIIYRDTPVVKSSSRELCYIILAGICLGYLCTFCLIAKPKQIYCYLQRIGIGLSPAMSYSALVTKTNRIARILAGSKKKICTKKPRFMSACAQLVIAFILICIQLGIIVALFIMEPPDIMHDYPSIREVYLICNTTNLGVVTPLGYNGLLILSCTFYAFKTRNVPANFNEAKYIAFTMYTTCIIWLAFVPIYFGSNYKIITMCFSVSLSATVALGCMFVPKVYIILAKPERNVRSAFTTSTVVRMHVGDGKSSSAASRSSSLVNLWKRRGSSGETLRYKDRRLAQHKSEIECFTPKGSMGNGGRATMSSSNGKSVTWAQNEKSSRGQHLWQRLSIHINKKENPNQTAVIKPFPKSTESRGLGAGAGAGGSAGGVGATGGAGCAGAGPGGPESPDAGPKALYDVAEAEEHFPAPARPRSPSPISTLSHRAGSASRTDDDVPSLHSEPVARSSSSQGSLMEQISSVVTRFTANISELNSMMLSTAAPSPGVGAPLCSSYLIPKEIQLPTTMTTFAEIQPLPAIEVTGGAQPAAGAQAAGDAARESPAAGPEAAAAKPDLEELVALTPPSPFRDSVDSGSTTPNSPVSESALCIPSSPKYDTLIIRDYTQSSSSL
The assay can be described thus: In vitro cell-based FLIPR calcium assay for positive modulation of the activation of mGluR5 by glutamate (PAM EC50). To be noted: HEK293/GLAST cells expressing recombinant human mGluR5; FLIPR calcium signal; glutamate added at its EC20; read-out: mGluR5 PAM EC50. A digest of the protocol:
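HEK293/GLAST cells stably expressing mGluR5 were loaded with calcium-sensitive dye (25 °C, 45–60 min) in HBSS/20 mM HEPES. Test compounds were assayed in buffer containing glutamate at that day's EC20, with FLIPR fluorescence recorded. Controls contained 0.3% DMSO without compound.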
By EC50 is commonly meant the concentration needed to bring the measured effect to its halfway point. In the case of `CC(C#N)N1CCc2nc3cc(C#Cc4ccccn4)ccc3c(=O)n2CC1` (stereo not drawn) [Example 8.24, 2-(11-oxo-8-(pyridin-2-ylethynyl)-1,2,4,5-tetrahydro-[1,4]diazepino[7,1-b]quinazolin-3(11H)-yl)propanenitrile], the EC50 lay in the range of 300 to 1000 nM.
For the compound `O=c1c2ccc(C#Cc3ccccn3)cc2nc2n1CCCCN2` [Example 8.25, 10-(pyridin-2-ylethynyl)-2,3,4,5-tetrahydro-[1,3]diazepino[2,1-b]quinazolin-7(1H)-one], the EC50 lay within 10 to 30 nM.
Take `O=c1c2ccc(C#Cc3ccccn3)cc2nc2n1C1CCN(CC1)C2` [Example 8.26]: the EC50 was in the range of 100 to 300 nM.
Regarding `CC1Cc2nc3cc(C#Cc4ccccn4)ccc3c(=O)n2CCN1C` (stereo not drawn) [Example 8.28, 3,4-dimethyl-8-(pyridin-2-ylethynyl)-2,3,4,5-tetrahydro-[1,4]diazepino[7,1-b]quinazolin-11(1H)-one], the EC50 lay in the range of 300 to 1000 nM.
The figure for `CC1Cn2c(nc3cc(C#Cc4ccccn4)ccc3c2=O)CCN1C` (stereo not drawn) [Example 8.30, 2,3-dimethyl-8-(pyridin-2-ylethynyl)-2,3,4,5-tetrahydro-[1,4]diazepino[7,1-b]quinazolin-11(1H)-one] is 100 to 300 nM; for `CN1C2CCC1Cn1c(nc3cc(C#Cc4cccc(F)c4)ccc3c1=O)C2` (stereo not drawn) [Example 9.1, 3-((3-fluorophenyl)ethynyl)-14-methyl-8,9,10,11-tetrahydro-6H-7,10-epiminoazocino[2,1-b]quinazolin-13(7H)-one] it is 300 to 1000 nM.
For `O=c1c2ccc(C#Cc3ccccn3)cc2nc2n1CC1CCCCN1CC2` (stereo not drawn) [Example 9.2, 3-(pyridin-2-ylethynyl)-9,10,11,12,12a,13-hexahydro-6H-pyrido[2′,1′:3,4][1,4]diazepino[7,1-b]quinazolin-15(7H)-one] the value was 100 to 300 nM; for `O=c1c2ccc(C#Cc3ccccn3)cc2nc2n1CC1CCCN1CC2` (stereo not drawn) [Example 9.4, 9-(pyridin-2-ylethynyl)-2,3,5,6,14,14a-hexahydropyrrolo[2′,1′:3,4][1,4]diazepino[7,1-b]quinazolin-12(1H)-one], 30 to 100 nM; for `O=c1c2ccc(C#Cc3ccccn3)cc2nc2n1CCN1CCCC1C2` (stereo not drawn) [Example 9.5, 11-(pyridin-2-ylethynyl)-2,3,5,6,14,14a-hexahydropyrrolo[1′,2′:4,5][1,4]diazepino[7,1-b]quinazolin-8(1H)-one], 100 to 300 nM.
The figure for `CN1CCCn2c(nc3cc(C#Cc4ccc(F)cc4)ccc3c2=O)CC1` [Example 10.1, 11-((4-fluorophenyl)ethynyl)-3-methyl-3,4,5,6-tetrahydro-1H-[1,5]diazocino[2,1-b]quinazolin-8(2H)-one] is 10 to 30 nM; for `CN1CCCc2nc3cc(C#Cc4ccc(F)cc4)ccc3c(=O)n2CC1` [Example 10.2, 9-((4-fluorophenyl)ethynyl)-3-methyl-3,4,5,6-tetrahydro-1H-[1,4]diazocino[8,1-b]quinazolin-12(2H)-one] it is 30 to 100 nM; for `CN1CCCn2c(nc3cc(C#Cc4cccc(F)c4)ccc3c2=O)CC1` [Example 10.3, 11-((3-fluorophenyl)ethynyl)-3-methyl-3,4,5,6-tetrahydro-1H-[1,5]diazocino[2,1-b]quinazolin-8(2H)-one] it is 10 to 30 nM.
As for `CN1CCCc2nc3cc(C#Cc4cccc(F)c4)ccc3c(=O)n2CC1` [Example 10.4, 9-((3-fluorophenyl)ethynyl)-3-methyl-3,4,5,6-tetrahydro-1H-[1,4]diazocino[8,1-b]quinazolin-12(2H)-one], the EC50 lay within 30 to 100 nM.
For the compound `O=C1CCc2nc3cc(C#Cc4cccc(F)c4)ccc3c(=O)n2CCN1` [Example 10.5, 9-((3-fluorophenyl)ethynyl)-2,3,5,6-tetrahydro-1H-[1,4]diazocino[8,1-b]quinazoline-4,12-dione], the EC50 was in the range of 30 to 100 nM.
For `O=C1CCn2c(nc3cc(C#Cc4cccc(F)c4)ccc3c2=O)CCN1` [Example 10.6, 11-((3-fluorophenyl)ethynyl)-2,3,5,6-tetrahydro-1H-[1,5]diazocino[2,1-b]quinazoline-4,8-dione] the value was 30 to 100 nM; for `COCCn1cnc2cc(C#Cc3cccc(F)c3)cnc2c1=O` [Example 11.1, 7-((3-fluorophenyl)ethynyl)-3-(2-methoxyethyl)pyrido[3,2-d]pyrimidin-4(3H)-one], 30 to 100 nM; for `O=c1c2ncc(C#Cc3ccccn3)cc2nc2n1C(CO)CC2` (stereo not drawn) [Example 11.3, 8-(hydroxymethyl)-3-(pyridin-2-ylethynyl)-7,8-dihydropyrido[3,2-d]pyrrolo[1,2-a]pyrimidin-10(6H)-one], 300 to 1000 nM.
The figure for `CC1(C)CCc2nc3cc(C#Cc4ccccn4)cnc3c(=O)n2C1` [Example 11.5, 8,8-dimethyl-3-(pyridin-2-ylethynyl)-8,9-dihydro-6H-dipyrido[1,2-a:3′,2′-d]pyrimidin-11(7H)-one] is 100 to 300 nM.
The figure for `O=c1c2ncc(C#Cc3ccccn3)cc2nc2n1CC1CCCN1C2` (stereo not drawn) [Example 11.6, 3-(pyridin-2-ylethynyl)-9,10,10a,11-tetrahydro-6H-pyrido[3,2-d]pyrrolo[1′,2′:4,5]pyrazino[1,2-a]pyrimidin-13(8H)-one] is 300 to 1000 nM; for `O=c1c2ncc(C#Cc3cccc(F)c3)cc2nc2n1CCCCC2` [Example 11.7, 3-((3-fluorophenyl)ethynyl)-7,8,9,10-tetrahydropyrido[3′,2′:4,5]pyrimido[1,2-a]azepin-12(6H)-one] it is less than 10 nM.
Regarding `O=c1c2ncc(C#Cc3ccccn3)cc2nc2n1CCCCC2` [Example 11.8, 3-(pyridin-2-ylethynyl)-7,8,9,10-tetrahydropyrido[3′,2′:4,5]pyrimido[1,2-a]azepin-12(6H)-one], the EC50 was in the range of 100 to 300 nM.
With `CC1CCc2nc3cc(C#Cc4ccccn4)cnc3c(=O)n2CC1` (stereo not drawn) [Example 11.9, 8-methyl-3-(pyridin-2-ylethynyl)-7,8,9,10-tetrahydropyrido[3′,2′:4,5]pyrimido[1,2-a]azepin-12(6H)-one], the EC50 was 10 to 30 nM.
For `CC1(C)Cc2nc3cc(C#Cc4ccccn4)cnc3c(=O)n2C1` [Example 11.10, 7,7-dimethyl-3-(pyridin-2-ylethynyl)-7,8-dihydropyrido[3,2-d]pyrrolo[1,2-a]pyrimidin-10(6H)-one] the value was 30 to 100 nM; for `CC1Cc2nc3cc(C#Cc4ccccn4)cnc3c(=O)n2C1` (stereo not drawn) [Example 11.13, 7-methyl-3-(pyridin-2-ylethynyl)-7,8-dihydropyrido[3,2-d]pyrrolo[1,2-a]pyrimidin-10(6H)-one], 300 to 1000 nM.
For `CC1(C)CCn2c(nc3nc(C#Cc4ccccn4)ccc3c2=O)C1` [Example 12.2, 9,9-dimethyl-2-(pyridin-2-ylethynyl)-7,8,9,10-tetrahydro-5H-dipyrido[1,2-a:2′,3′-d]pyrimidin-5-one] the value was 30 to 100 nM; for `CC1(C)CCc2nc3nc(C#Cc4ccccn4)ccc3c(=O)n2C1` [Example 12.3, 8,8-dimethyl-2-(pyridin-2-ylethynyl)-7,8,9,10-tetrahydro-5H-dipyrido[1,2-a:2′,3′-d]pyrimidin-5-one], 30 to 100 nM.
With `O=c1c2ccc(C#Cc3ccccn3)nc2nc2n1CCCCC2` [Example 12.5, 2-(pyridin-2-ylethynyl)-8,9,10,11-tetrahydropyrido[2′,3′:4,5]pyrimido[1,2-a]azepin-5(7H)-one], the EC50 lay in the range of 300 to 1000 nM.
